We go through eight molecules from PubChem BioAssay (NCI).

Some test systems named below: OVCAR-8 ovarian; ACHN renal; HT29 colon; DU-145 prostate; NCI-H460 lung; SN12C renal; MDA-MB-435; 786-0 renal; SK-MEL-28 melanoma; NCI-H522 lung; CAKI-1 renal; UACC-257 melanoma; SK-OV-3 ovarian; T-47D breast; MDA-MB-231 breast; NCI-H226 lung; HCT-15 colon; A498 renal; SR leukemia.
Common to all, as to assay: inhibition of tumour cell growth, NCI panel, 48 h

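Test compounds were applied to cells in 96-well plates for 48 hours at 5 doses. TGI marks complete inhibition of growth.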

In the case of `Cc1cc2c3c(c1)CCCN3CCC2`, the TGI in the assay on OVCAR-8 ovarian, in the assay with ACHN renal, with HT29 colon, with DU-145 prostate, in the assay with NCI-H460 lung and with SN12C renal was above 10 µM throughout. The TGI with MDA-MB-435, in the assay on 786-0 renal, with SK-MEL-28 melanoma, in the assay on NCI-H522 lung, in the assay on CAKI-1 renal and in the assay with UACC-257 melanoma was above 10 µM throughout. The TGI in the assay on SK-OV-3 ovarian, with T-47D breast, in the assay with MDA-MB-231 breast, in the assay with NCI-H226 lung, with HCT-15 colon and in the assay on A498 renal was above 10 µM each time. This molecule also registered a TGI in the assay with SR leukemia above 10 µM.
Take `CCN(CCCl)c1cc(CN(C)C)cc(NC(=O)c2cc(C(=O)Nc3cc(CN(C)C)cc(N(CC)CCCl)c3)n(C)n2)c1`: the TGI in the assay with OVCAR-8 ovarian came to 1.13 µM; in the assay on ACHN renal it was 0.749 µM; in the assay on HT29 colon it was 1.02 µM; with DU-145 prostate, 9.19 µM; with NCI-H460 lung, 0.4 µM; with SN12C renal, 2.01 µM. Besides, the TGI in the assay with MDA-MB-435 was 1.2 µM; in the assay with 786-0 renal it was 0.261 µM; with SK-MEL-28 melanoma, 2.81 µM; in the assay on NCI-H522 lung, 0.384 µM; with CAKI-1 renal, 2.72 µM; in the assay on UACC-257 melanoma, 2.89 µM. The TGI in the assay on SK-OV-3 ovarian worked out at 3.3 µM; with T-47D breast, 6.43 µM; in the assay on MDA-MB-231 breast it was 4.06 µM; in the assay on NCI-H226 lung, 4.16 µM; in the assay on HCT-15 colon it was 10.5 µM; in the assay on A498 renal, 4.41 µM. The TGI with SR leukemia is above 100 µM.
On to `O=C(NN1C(=O)C(Cl)C1c1c(O)ccc2ccccc12)c1ccccc1O` (configuration not stated), for which the TGI in the assay with OVCAR-8 ovarian, in the assay with ACHN renal, with HT29 colon, in the assay on NCI-H460 lung, in the assay on SN12C renal and with 786-0 renal was above 100 µM each time. In addition, the TGI in the assay on SK-MEL-28 melanoma, with NCI-H522 lung, in the assay on UACC-257 melanoma, in the assay on SK-OV-3 ovarian, in the assay on NCI-H226 lung and with HCT-15 colon was above 100 µM throughout. In addition, in the assay on A498 renal, the TGI was above 100 µM.
In the case of `Cn1c(=O)c(C(=O)NC23CC4CC(CC(C4)C2)C3)c(O)c2ccccc21`, the TGI was determined as 64.1 µM in the assay on OVCAR-8 ovarian; 42.9 µM with ACHN renal; 48.1 µM in the assay with HT29 colon; 51.1 µM in the assay with NCI-H460 lung; 54.8 µM in the assay with SN12C renal; 30.3 µM in the assay on 786-0 renal. Moreover, the TGI in the assay on SK-MEL-28 melanoma is above 100 µM; in the assay on NCI-H522 lung, above 100 µM; with UACC-257 melanoma, above 100 µM; with SK-OV-3 ovarian, 73.4 µM; in the assay on NCI-H226 lung it was 48.4 µM; with HCT-15 colon, above 100 µM. The molecule further came in with a TGI in the assay on SR leukemia above 100 µM.
With `COc1cccc2c1[C@H]1OC(=O)NC1CCCCC2` (some centres not stated), the TGI with OVCAR-8 ovarian, in the assay with ACHN renal, in the assay on HT29 colon, in the assay on NCI-H460 lung, with SN12C renal and in the assay on 786-0 renal was above 100 µM throughout. The TGI in the assay on SK-MEL-28 melanoma, in the assay on NCI-H522 lung, with CAKI-1 renal, with UACC-257 melanoma, in the assay with SK-OV-3 ovarian and in the assay with NCI-H226 lung was above 100 µM each time. Besides, the TGI with HCT-15 colon and in the assay on A498 renal was above 100 µM each time.
With `NC(N)=N/N=C\c1c(-c2ccccc2)nc2sccn12`, the TGI was found to be 30.9 µM with OVCAR-8 ovarian; 30.6 µM in the assay on ACHN renal; 28.6 µM in the assay on HT29 colon; 33 µM in the assay on DU-145 prostate; 29.7 µM in the assay on NCI-H460 lung; 28.8 µM in the assay with SN12C renal. Besides, the TGI came out at 29.2 µM in the assay on MDA-MB-435; 27.1 µM in the assay with 786-0 renal; 29.1 µM in the assay with SK-MEL-28 melanoma; 24.6 µM in the assay with NCI-H522 lung; 29.6 µM with CAKI-1 renal; 26.3 µM in the assay with UACC-257 melanoma. Further, the TGI in the assay with SK-OV-3 ovarian worked out at 33.2 µM; in the assay on T-47D breast, 29.1 µM; with MDA-MB-231 breast it was 27.3 µM; with NCI-H226 lung, 33.1 µM; with HCT-15 colon, 29.8 µM; in the assay on A498 renal, 33.6 µM. This molecule also gave a TGI in the assay on SR leukemia above 100 µM.
Regarding `CC(=O)OC1CC[C@@]2(C)C(=CC[C@@H]3[C@@H]2CC[C@]2(C)C(OC(C)=O)[C@H](n4ccnc4)C[C@@H]32)C1` (some centres not stated), the TGI in the assay with OVCAR-8 ovarian was 44.2 µM; in the assay with ACHN renal, above 100 µM; with HT29 colon, 23.7 µM; with DU-145 prostate, above 100 µM; in the assay on NCI-H460 lung, 33.4 µM; with SN12C renal it was above 100 µM. Also, the TGI in the assay with MDA-MB-435 was 31.6 µM; in the assay on 786-0 renal, above 100 µM; in the assay with SK-MEL-28 melanoma it was 31.5 µM; in the assay on NCI-H522 lung, 40.9 µM; in the assay on CAKI-1 renal, above 100 µM; in the assay with UACC-257 melanoma, 31.1 µM. Also, the TGI in the assay with MDA-MB-231 breast was above 100 µM; in the assay on NCI-H226 lung, above 100 µM; in the assay with HCT-15 colon it was 30.6 µM; with A498 renal it was above 100 µM; in the assay with SR leukemia, 36.7 µM.
`COC(=O)C1(Cc2ccccc2)Cc2c(C)ccc(C)c2C1=O` (configuration not stated): the TGI with OVCAR-8 ovarian is 52.1 µM; in the assay on ACHN renal it was above 100 µM; in the assay with HT29 colon it was 69.8 µM; in the assay with DU-145 prostate it was above 100 µM; in the assay on NCI-H460 lung, above 100 µM; in the assay with SN12C renal, above 100 µM. In addition, the TGI in the assay on MDA-MB-435 is 43.4 µM; in the assay on 786-0 renal it was above 100 µM; in the assay with SK-MEL-28 melanoma, above 100 µM; in the assay on NCI-H522 lung it was 56.2 µM; in the assay on UACC-257 melanoma it was 64.9 µM; in the assay on SK-OV-3 ovarian, above 100 µM. Besides, the TGI was above 100 µM with T-47D breast; 38.4 µM in the assay on MDA-MB-231 breast; 97.3 µM in the assay on NCI-H226 lung; above 100 µM in the assay on HCT-15 colon; above 100 µM in the assay with A498 renal; above 100 µM with SR leukemia.
